Laboratory results from ChEMBL document CHEMBL1201861, “Genomics of Drug Sensitity in Cancer screening data, Wellcome Trust Sanger Institute”.

Key:
Assay in all cases: cells
Details in all cases: Homo sapiens
[1] = test system: D283 Med; type: functional, cell-based
Description: SANGER: Inhibition of human D-283MED cell growth in a cell viability assay.

[2] = test system: ML-2; type: functional, cell-based;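 also: growth inhibition of ML-2 cells, measured with a cell viability readout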
Description: SANGER: Inhibition of human ML-2 cell growth in a cell viability assay.

[3] = test system: NCI-H23; type: functional, cell-based;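 also: cell viability assay measuring growth inhibition of NCI-H23 cells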
Description: SANGER: Inhibition of human NCI-H23 cell growth in a cell viability assay.

[4] = test system: MPP-89; type: functional, cell-based;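 also: growth inhibition of human MPP-89 cells, read out with a cell viability assay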
Description: SANGER: Inhibition of human MPP-89 cell growth in a cell viability assay.

[5] = test system: PSN1; type: functional, cell-based;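 also: suppression of growth of human PSN1 cells, read out by a cell viability assay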
Description: SANGER: Inhibition of human PSN1 cell growth in a cell viability assay.

[6] = test system: HT-144; type: functional, cell-based
Description: SANGER: Inhibition of human HT-144 cell growth in a cell viability assay.

[7] = test system: LB771-HNC; type: functional, cell-based;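 also: growth inhibition of LB771-HNC human cells, read out with a cell viability assay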
Description: SANGER: Inhibition of human LB771-HNC cell growth in a cell viability assay.

[8] = test system: HCE-T; type: functional, cell-based;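 also: cell viability assay read-out, reporting inhibition of HCE-T cell growth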
Description: SANGER: Inhibition of human HCE-T cell growth in a cell viability assay.

[9] = test system: SNU-5; type: functional, cell-based;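 also: cell viability readout used to measure growth inhibition in human NCI-SNU-5 cells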
Description: SANGER: Inhibition of human NCI-SNU-5 cell growth in a cell viability assay.

[10] = test system: COLO-829; type: functional, cell-based
Description: SANGER: Inhibition of human COLO-829 cell growth in a cell viability assay.

[11] = test system: LU-139; type: functional, cell-based
Description: SANGER: Inhibition of human LU-139 cell growth in a cell viability assay.

[12] = test system: NCI-H2126; type: functional, cell-based;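 also: growth inhibition of the cancer cell line, determined with a cell viability readout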
Description: SANGER: Inhibition of human NCI-H2126 cell growth in a cell viability assay.

[13] = test system: OS-RC-2; type: functional, cell-based;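 also: growth inhibition of human OS-RC-2 cells, measured by a cell viability assay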
Description: SANGER: Inhibition of human OS-RC-2 cell growth in a cell viability assay.

[14] = test system: IA-LM; type: functional, cell-based;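 also: cell viability assay measuring growth inhibition of human IA-LM cells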
Description: SANGER: Inhibition of human IA-LM cell growth in a cell viability assay.

[15] = test system: LS-123; type: functional, cell-based
Description: SANGER: Inhibition of human LS-123 cell growth in a cell viability assay.

[16] = test system: HOP-62; type: functional, cell-based;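 also: cell growth inhibition determined with a viability assay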
Description: SANGER: Inhibition of human HOP-62 cell growth in a cell viability assay.

[17] = test system: ES7; type: functional, cell-based;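 also: growth inhibition of cultured human ES7 cells, read out as cell viability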
Description: SANGER: Inhibition of human ES7 cell growth in a cell viability assay.

[18] = test system: CW-2; type: functional, cell-based;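 also: growth inhibition of CW-2 cells, read out by a cell viability assay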
Description: SANGER: Inhibition of human CW-2 cell growth in a cell viability assay.

[19] = test system: LB2241-RCC; type: functional, cell-based;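 also: cell viability assay measuring how strongly the cultured human renal carcinoma line is prevented from growing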
Description: SANGER: Inhibition of human LB2241-RCC cell growth in a cell viability assay.

[20] = test system: NCI-H209; type: functional, cell-based;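 also: growth inhibition of human NCI-H209 cells, measured by a cell viability assay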
Description: SANGER: Inhibition of human NCI-H209 cell growth in a cell viability assay.

[21] = test system: TE-8; type: functional, cell-based;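 also: growth inhibition of TE-8 cells, measured with a cell viability readout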
Description: SANGER: Inhibition of human TE-8 cell growth in a cell viability assay.

[22] = test system: A4-Fuk; type: functional, cell-based;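 also: growth inhibition of A4-Fuk cells, read out by a cell viability assay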
Description: SANGER: Inhibition of human A4-Fuk cell growth in a cell viability assay.

[23] = test system: A498; type: functional, cell-based;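 also: growth inhibition of human A498 cells, read out with a cell viability assay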
Description: SANGER: Inhibition of human A498 cell growth in a cell viability assay.

[24] = test system: NCI-H226; type: functional, cell-based;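 also: cell viability read-out used to gauge growth inhibition of the cells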
Description: SANGER: Inhibition of human NCI-H226 cell growth in a cell viability assay.

[25] = test system: SW872; type: functional, cell-based;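 also: growth inhibition of SW872 cells, read out by a viability assay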
Description: SANGER: Inhibition of human SW872 cell growth in a cell viability assay.

[26] = test system: 8-MG-BA; type: functional, cell-based;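 also: growth inhibition of 8-MG-BA cells, read out with a cell viability assay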
Description: SANGER: Inhibition of human 8-MG-BA cell growth in a cell viability assay.

[27] = test system: CTB-1; type: functional, cell-based
Description: SANGER: Inhibition of human CTB-1 cell growth in a cell viability assay.

[28] = test system: P30-OHK; type: functional, cell-based;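 also: growth inhibition of the P30-OHK cell line, read out with a cell viability assay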
Description: SANGER: Inhibition of human P30-OHK cell growth in a cell viability assay.

[29] = test system: LC-2-ad; type: functional, cell-based;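 also: growth inhibition of human LC-2-ad cells, read out with a cell viability assay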
Description: SANGER: Inhibition of human LC-2-ad cell growth in a cell viability assay.

[30] = test system: A3-KAW; type: functional, cell-based;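 also: growth inhibition of human A3-KAW cells, read out with a cell viability assay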
Description: SANGER: Inhibition of human A3-KAW cell growth in a cell viability assay.

[31] = test system: SW684; type: functional, cell-based;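 also: growth inhibition of human SW684 cells, measured by a cell viability assay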
Description: SANGER: Inhibition of human SW684 cell growth in a cell viability assay.

[32] = test system: SF-539; type: functional, cell-based;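 also: Read-out is a cell viability assay, with IC50 reflecting inhibition of cell growth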
Description: SANGER: Inhibition of human SF539 cell growth in a cell viability assay.

[33] = test system: NH-12; type: functional, cell-based;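 also: growth inhibition of NH-12 cells, read out with a cell viability assay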
Description: SANGER: Inhibition of human NH-12 cell growth in a cell viability assay.

[34] = test system: U-87 MG; type: functional, cell-based, U-87MG ATCC;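 also: growth inhibition of the cells measured with a viability assay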
Description: SANGER: Inhibition of human U-87-MG cell growth in a cell viability assay.

[35] = test system: BV-173; type: functional, cell-based
Description: SANGER: Inhibition of human BV-173 cell growth in a cell viability assay.

[36] = test system: TE-11; type: functional, cell-based;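 also: growth inhibition of human TE-11 cells, read out by a cell viability assay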
Description: SANGER: Inhibition of human TE-11 cell growth in a cell viability assay.

[37] = test system: NCI-H1581; type: functional, cell-based;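 also: cell growth inhibition read out by a viability assay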
Description: SANGER: Inhibition of human NCI-H1581 cell growth in a cell viability assay.

[38] = test system: KM12; type: functional, cell-based;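 also: KM12 cell growth inhibition, read out with a cell viability assay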
Description: SANGER: Inhibition of human KM12 cell growth in a cell viability assay.

[39] = test system: NB69; type: functional, cell-based;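 also: growth inhibition of NB69 cells, determined by a cell viability assay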
Description: SANGER: Inhibition of human NB69 cell growth in a cell viability assay.

[40] = test system: LS-411N; type: functional, cell-based
[41] = test system: EW-1; type: functional, cell-based;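 also: growth inhibition of the human EW-1 cell line, read out by a cell viability assay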
Description: SANGER: Inhibition of human EW-1 cell growth in a cell viability assay.

[42] = test system: SJSA-1; type: functional, cell-based;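 also: growth inhibition of human SJSA-1 cells, read out through a cell viability measurement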
Description: SANGER: Inhibition of human SJSA-1 cell growth in a cell viability assay.

[43] = test system: EM-2; type: functional, cell-based;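 also: growth inhibition of EM-2 cells, read out with a cell viability assay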
Description: SANGER: Inhibition of human EM-2 cell growth in a cell viability assay.

[44] = test system: CAS-1; type: functional, cell-based;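 also: growth inhibition of CAS-1 cells, measured with a cell viability assay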
Description: SANGER: Inhibition of human CAS-1 cell growth in a cell viability assay.

[45] = test system: ACN; type: functional, cell-based;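 also: growth inhibition of the human ACN cell line, read out via cell viability testing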
Description: SANGER: Inhibition of human ACN cell growth in a cell viability assay.

[46] = test system: D-502MG; type: functional, cell-based
Description: SANGER: Inhibition of human D-502MG cell growth in a cell viability assay.

[47] = test system: HCE-4; type: functional, cell-based;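 also: cell viability assay measuring inhibition of growth in the human HCE-4 cell line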
Description: SANGER: Inhibition of human HCE-4 cell growth in a cell viability assay.

[48] = test system: DOHH-2; type: functional, cell-based;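 also: growth inhibition of human DOHH-2 cells, read out with a cell viability assay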
Description: SANGER: Inhibition of human DOHH-2 cell growth in a cell viability assay.

[49] = test system: QIMR-WIL; type: functional, cell-based;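 also: growth inhibition of QIMR-WIL cells, read out with a cell viability assay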
Description: SANGER: Inhibition of human QIMR-WIL cell growth in a cell viability assay.

[50] = test system: NMC-G1; type: functional, cell-based;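 also: growth inhibition of the NMC-G1 cell line, measured with a cell viability read-out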
Description: SANGER: Inhibition of human NMC-G1 cell growth in a cell viability assay.

[51] = test system: EW-16; type: functional, cell-based;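 also: growth inhibition of human EW-16 cells, read out as cell viability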
Description: SANGER: Inhibition of human EW-16 cell growth in a cell viability assay.

[52] = test system: ALL-PO; type: functional, cell-based;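 also: growth inhibition of ALL-PO cells, read out by a cell viability assay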
Description: SANGER: Inhibition of human ALL-PO cell growth in a cell viability assay.

[53] = test system: EW-18; type: functional, cell-based;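 also: growth inhibition of EW-18 cells, read out by a cell viability assay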
Description: SANGER: Inhibition of human EW-18 cell growth in a cell viability assay.

[54] = test system: BB30-HNC; type: functional, cell-based;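 also: growth inhibition of the cultured cell line, read out by a cell viability assay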
Description: SANGER: Inhibition of human BB30-HNC cell growth in a cell viability assay.

[55] = test system: TE-1; type: functional, cell-based;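 also: growth inhibition of the human TE-1 cell line, read out with a cell viability assay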
Description: SANGER: Inhibition of human TE-1 cell growth in a cell viability assay.

[56] = test system: COLO-668; type: functional, cell-based
Description: SANGER: Inhibition of human COLO-668 cell growth in a cell viability assay.

[57] = test system: BB65-RCC; type: functional, cell-based;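 also: growth inhibition of the cell line, measured with a cell viability assay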
Description: SANGER: Inhibition of human BB65-RCC cell growth in a cell viability assay.

[58] = test system: MHH-NB-11; type: functional, cell-based;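 also: growth inhibition of human MHH-NB-11 cells, read out by a cell viability assay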
Description: SANGER: Inhibition of human MHH-NB-11 cell growth in a cell viability assay.

[59] = test system: K5; type: functional, cell-based
Description: SANGER: Inhibition of human K5 cell growth in a cell viability assay.

[60] = test system: LS-1034; type: functional, cell-based
Description: SANGER: Inhibition of human LS-1034 cell growth in a cell viability assay.

[61] = test system: KGN; type: functional, cell-based;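 also: growth inhibition of KGN cells, read out with a cell viability assay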
Description: SANGER: Inhibition of human KGN cell growth in a cell viability assay.

[62] = test system: COR-L88; type: functional, cell-based
Description: SANGER: Inhibition of human COR-L88 cell growth in a cell viability assay.

[63] = test system: MFH-ino; type: functional, cell-based
Description: SANGER: Inhibition of human MFH-ino cell growth in a cell viability assay.

[64] = test system: NB13; type: functional, cell-based
Description: SANGER: Inhibition of human NB13 cell growth in a cell viability assay.

[65] = test system: EW-3; type: functional, cell-based
Description: SANGER: Inhibition of human EW-3 cell growth in a cell viability assay.

NC(=O)c1ncn([C@@H]2O[C@H](COP(=O)(O)O)[C@@H](O)[C@H]2O)c1N
IC50 [1]: > 2000 µM | IC50 [2]: > 2000 µM | IC50 [3]: > 2000 µM | IC50 [4]: > 2000 µM | IC50 [5]: 1950 µM | IC50 [6]: > 2000 µM | IC50 [7]: > 2000 µM | IC50 [8]: 715 µM | IC50 [9]: > 2000 µM | IC50 [10]: > 2000 µM | IC50 [11]: 803 µM | IC50 [12]: > 2000 µM | IC50 [13]: > 2000 µM | IC50 [14]: 859 µM | IC50 [15]: 690 µM | IC50 [16]: > 2000 µM | IC50 [17]: > 2000 µM | IC50 [18]: > 2000 µM | IC50 [19]: 1370 µM | IC50 [20]: > 2000 µM | IC50 [21]: 828 µM | IC50 [22]: 297 µM | IC50 [23]: > 2000 µM | IC50 [24]: > 2000 µM | IC50 [25]: > 2000 µM | IC50 [26]: > 2000 µM | IC50 [27]: 646 µM | IC50 [28]: 541 µM | IC50 [29]: 1170 µM | IC50 [30]: 368 µM | IC50 [31]: 896 µM | IC50 [32]: > 2000 µM | IC50 [33]: > 2000 µM | IC50 [34]: > 2000 µM | IC50 [35]: 93.8 µM | IC50 [36]: 587 µM | IC50 [37]: > 2000 µM | IC50 [38]: > 2000 µM | IC50 [39]: 976 µM | IC50 [40]: > 2000 µM | IC50 [41]: 1870 µM | IC50 [42]: 949 µM | IC50 [43]: 230 µM | IC50 [44]: > 2000 µM | IC50 [45]: 1880 µM | IC50 [46]: > 2000 µM | IC50 [47]: 1710 µM | IC50 [48]: 1310 µM | IC50 [49]: 486 µM | IC50 [50]: > 2000 µM | IC50 [51]: > 2000 µM | IC50 [52]: 755 µM | IC50 [53]: > 2000 µM | IC50 [54]: 214 µM | IC50 [55]: 207 µM | IC50 [56]: > 2000 µM | IC50 [57]: 1200 µM | IC50 [58]: 1110 µM | IC50 [59]: > 2000 µM | IC50 [60]: > 2000 µM | IC50 [61]: 630 µM

CC[C@@]1(O)C(=O)OCc2c1cc1n(c2=O)Cc2cc3ccccc3nc2-1 [CAMPTOTHECIN]
IC50 [1]: 0.0032 µM | IC50 [62]: 0.0409 µM | IC50 [2]: 0.00216 µM | IC50 [3]: 0.0407 µM | IC50 [4]: 0.0272 µM | IC50 [5]: 0.00307 µM | IC50 [6]: 0.0179 µM | IC50 [8]: 0.00547 µM | IC50 [9]: 0.0427 µM | IC50 [10]: 0.0117 µM | IC50 [11]: 0.0164 µM | IC50 [13]: 0.00997 µM | IC50 [14]: 0.012 µM | IC50 [15]: > 0.1 µM | IC50 [16]: > 0.1 µM | IC50 [17]: 2.54e-05 µM | IC50 [18]: 0.0354 µM | IC50 [19]: 0.00208 µM | IC50 [20]: 4.84e-05 µM | IC50 [21]: 0.00417 µM | IC50 [22]: 0.00175 µM | IC50 [63]: 0.0271 µM | IC50 [23]: 0.00708 µM | IC50 [24]: 0.0225 µM | IC50 [25]: 0.0242 µM | IC50 [26]: 0.0015 µM | IC50 [27]: 0.000429 µM | IC50 [28]: 0.00279 µM | IC50 [29]: 0.00281 µM | IC50 [30]: 0.00167 µM | IC50 [31]: > 0.1 µM | IC50 [32]: 0.00901 µM | IC50 [33]: 0.00379 µM | IC50 [34]: 0.00663 µM | IC50 [64]: 0.0288 µM | IC50 [35]: 0.00238 µM | IC50 [36]: 0.0163 µM | IC50 [37]: 0.0335 µM | IC50 [38]: 0.075 µM | IC50 [39]: 0.000569 µM | IC50 [40]: 0.0581 µM | IC50 [41]: 0.00178 µM | IC50 [42]: 0.018 µM | IC50 [43]: 0.00408 µM | IC50 [45]: 0.0857 µM | IC50 [46]: 0.0226 µM | IC50 [47]: 0.00181 µM | IC50 [48]: 0.000602 µM | IC50 [49]: 0.000775 µM | IC50 [65]: 0.000319 µM | IC50 [50]: 0.0198 µM | IC50 [51]: 0.000121 µM | IC50 [52]: 0.00153 µM | IC50 [54]: 0.0215 µM | IC50 [55]: 0.0351 µM | IC50 [56]: 0.0223 µM | IC50 [57]: 0.00185 µM | IC50 [58]: 0.000842 µM | IC50 [59]: 0.0032 µM | IC50 [60]: > 0.1 µM | IC50 [61]: 0.0106 µM
